Source: the supplement of paper PMC11208160

experiment: recombinant UMI read abundance after kanamycin selection (control-corrected) (log10(CPM+1)); higher = more efficient recombination; extreme values may be limits of the assay; sequences stand for … in AGTGCAGAGAAAATCGGCCAGTTTTCTCTGCCTGCAGTCCGCATGCCGTGGGACCCCTTGGGTTCTAACCTGTTGCCTAGATTTATGCAGCGGACTGCCTTTCTCCCAAAGTGATAAACCGG…AGGTTGGTTTCACT; site = the 11-nt donor
Procedure, shortened: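 Reported values are log10(CPM+1) from a pooled Escherichia coli screen of donor and donor-binding-loop pairs for the IS621 bridge recombinase. Selection used IPTG (0.07 mM) plus kanamycin, against unselected plating, each in two replicates. Recombinant UMIs were amplified across the donor–target junction, sequenced, converted to CPM, averaged over replicates and scaled by control-derived factors.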
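Further: IS621 bridge recombinase in Escherichia coli cells against a fixed T5 target plasmid.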

Sequence | recombinant UMI read abundance (log10)
TAGCCTTCATGGACCGGTTTTCCCGGTAATCCGTATTTGGT (site TAGCATTCTAC) | 0.0053
TAGCCTTCATGGACCGGTTTTCCCGGTAATCCGTATTTGGT (site TAGCCATCTAC) | 0.00583
TAGCCTTCATGGACCGGTTTTCCCGGTAATCCGTATTTGGT (site TAGCCCTCTAC) | 0.00791
TAGCCTTCATGGACCGGTTTTCCCGGTAATCCGTATTTGGT (site TAGCCGTCTAC) | 0.0151
TAGCCTTCATGGACCGGTTTTCCCGGTAATCCGTATTTGGT (site TAGCCTACTAC) | 0.0102
TAGCCTTCATGGACCGGTTTTCCCGGTAATCCGTATTTGGT (site TAGCCTCCTAC) | 0.00585
TAGCCTTCATGGACCGGTTTTCCCGGTAATCCGTATTTGGT (site TAGCCTGCTAC) | 0.0178
TAGCCTTCATGGACCGGTTTTCCCGGTAATCCGTATTTGGT (site TAGCCTTCTAA) | 0.0101
TAGCCTTCATGGACCGGTTTTCCCGGTAATCCGTATTTGGT (site TAGCCTTCTAC) | 0.00564
TAGCCTTCATGGACCGGTTTTCCCGGTAATCCGTATTTGGT (site TAGCCTTCTAG) | 0
TAGCCTTCATGGACCGGTTTTCCCGGTAATCCGTATTTGGT (site TAGCCTTCTAT) | 0.017
TAGCCTTCATGGACCGGTTTTCCCGGTAATCCGTATTTGGT (site TAGCCTTCTCC) | 0.0356
TAGCCTTCATGGACCGGTTTTCCCGGTAATCCGTATTTGGT (site TAGCCTTCTGC) | 0
TAGCCTTCATGGACCGGTTTTCCCGGTAATCCGTATTTGGT (site TAGCCTTCTTC) | 0.0121
TAGCCTTCATGGACCGGTTTTCCCGGTAATCCGTATTTGGT (site TAGCGTTCTAC) | 0
TAGCCTTCATGGACCGGTTTTCCCGGTAATCCGTATTTGGT (site TAGCTTTCTAC) | 0
TAGCCTTCATGGACCGGTTTTCCCGGTAATCCGTATTTGGT (site TAGGCTTCTAC) | 0.0025
TAGCCTTCATGGACCGGTTTTCCCGGTAATCCGTATTTGGT (site TAGTCTTCTAC) | 0
TAGCCTTCATGGACCGGTTTTCCCGGTAATCCGTATTTGGT (site TATCCTTCTAC) | 0.379
TAGCCTTCATGGACCGGTTTTCCCGGTAATCCGTATTTGGT (site TCGCCTTCTAC) | 0.0137
TAGCCTTCATGGACCGGTTTTCCCGGTAATCCGTATTTGGT (site TGGCCTTCTAC) | 0
TAGCCTTCATGGACCGGTTTTCCCGGTAATCCGTATTTGGT (site TTGCCTTCTAC) | 0.0116
TAGCGAGCATGGACCGGTTTTCCCGGTAATCCGTATTTGTC (site TAGCGAGCTGA) | 2.41
TAGCGCTCATGGACCGGTTTTCCCGGTAATCCGTATTTGCA (site TAGCGCTCTTG) | 2.33
TAGCGTTCATGGACCGGTTTTCCCGGTAATCCGTATTTGGT (site TAGCATTCTAC) | 0.538
TAGCGTTCATGGACCGGTTTTCCCGGTAATCCGTATTTGGT (site TAGCCTTCTAC) | 0.00546

Sequence | recombinant UMI read abundance (log10)
TAGCGTTCATGGACCGGTTTTCCCGGTAATCCGTATTTGGT (site TAGCGTTCTAC) | 1.12
TAGCGTTCATGGACCGGTTTTCCCGGTAATCCGTATTTGGT (site TAGCTTTCTAC) | 0
TAGCTAGCATGGACCGGTTTTCCCGGTAATCCGTATTTGAT (site TAGCTAGCTAT) | 1.59
TAGCTAGCATGGACCGGTTTTCCCGGTAATCCGTATTTGAT (site TAGCTAGCTCT) | 0.0164
TAGCTAGCATGGACCGGTTTTCCCGGTAATCCGTATTTGAT (site TAGCTAGCTGT) | 0
TAGCTAGCATGGACCGGTTTTCCCGGTAATCCGTATTTGAT (site TAGCTAGCTTT) | 0.0212
TAGCTAGCATGGACCGGTTTTCCCGGTAATCCGTATTTGCA (site TAGCTAGCTTA) | 0.178
TAGCTAGCATGGACCGGTTTTCCCGGTAATCCGTATTTGCA (site TAGCTAGCTTC) | 0.00756
TAGCTAGCATGGACCGGTTTTCCCGGTAATCCGTATTTGCA (site TAGCTAGCTTG) | 1.01
TAGCTAGCATGGACCGGTTTTCCCGGTAATCCGTATTTGCA (site TAGCTAGCTTT) | 0.0133
TAGCTAGCATGGACCGGTTTTCCCGGTAATCCGTATTTGTA (site TAGCTAGCTTA) | 1.62
TAGCTAGCATGGACCGGTTTTCCCGGTAATCCGTATTTGTA (site TAGCTAGCTTC) | 0.0102
TAGCTAGCATGGACCGGTTTTCCCGGTAATCCGTATTTGTA (site TAGCTAGCTTG) | 0.789
TAGCTAGCATGGACCGGTTTTCCCGGTAATCCGTATTTGTA (site TAGCTAGCTTT) | 0.235
TAGCTCTCATGGACCGGTTTTCCCGGTAATCCGTATTTGGG (site TAGCTCTCTCC) | 0.00931
TAGGAATCATGGACCGGTTTTCCCGGTAATCCGTATTTGAG (site TAGGAATCTCA) | 2.32
TAGGAATCATGGACCGGTTTTCCCGGTAATCCGTATTTGAG (site TAGGAATCTCC) | 1.84
TAGGAATCATGGACCGGTTTTCCCGGTAATCCGTATTTGAG (site TAGGAATCTCG) | 1.36
TAGGAATCATGGACCGGTTTTCCCGGTAATCCGTATTTGAG (site TAGGAATCTCT) | 3.1
TAGGAATCATGGACCGGTTTTCCCGGTAATCCGTATTTGCG (site AAGGAATCTCG) | 2.07
TAGGAATCATGGACCGGTTTTCCCGGTAATCCGTATTTGCG (site CAGGAATCTCG) | 2.3
TAGGAATCATGGACCGGTTTTCCCGGTAATCCGTATTTGCG (site GAGGAATCTCG) | 0
TAGGAATCATGGACCGGTTTTCCCGGTAATCCGTATTTGCG (site TAAGAATCTCG) | 2.05
TAGGAATCATGGACCGGTTTTCCCGGTAATCCGTATTTGCG (site TACGAATCTCG) | 1.28
TAGGAATCATGGACCGGTTTTCCCGGTAATCCGTATTTGCG (site TAGAAATCTCG) | 2.39
TAGGAATCATGGACCGGTTTTCCCGGTAATCCGTATTTGCG (site TAGCAATCTCG) | 1.05
